Results published in the NIST ThermoML archive (doi:10.1021/je800234h).
Numbers after ± are expanded uncertainties.

Assay: mn = molality of the nth substance listed, in mol/kg
Details: Liquid, Vibrating tube method

[Ca+2].[Cl-].[Cl-] [calcium chloride] + CCO
Details	mass density [kg/m3]
373.15 K, 30290 kPa, m1 = 0.09327	758.06 ± 0.49
373.15 K, 30410 kPa, m1 = 0.1743	764.51 ± 0.48
373.15 K, 35070 kPa, m1 = 1.266	842.89 ± 0.44
373.15 K, 35370 kPa, m1 = 0.4379	787.22 ± 0.49
373.15 K, 35420 kPa, m1 = 0.09327	762.76 ± 0.52
373.15 K, 35480 kPa, m1 = 1.55	862.67 ± 0.43
373.15 K, 35840 kPa, m1 = 0.6899	804.85 ± 0.48
373.15 K, 35870 kPa, m1 = 0.1743	768.88 ± 0.51
373.15 K, 35870 kPa, m1 = 0.9896	825.32 ± 0.46
373.15 K, 39260 kPa, m1 = 0.4379	790.31 ± 0.51
373.15 K, 39740 kPa, m1 = 0.1743	771.57 ± 0.54
373.15 K, 39910 kPa, m1 = 0.09327	766.53 ± 0.54
373.15 K, 39940 kPa, m1 = 0.6899	807.94 ± 0.5
373.15 K, 39960 kPa, m1 = 0.9896	828.19 ± 0.48
373.15 K, 39970 kPa, m1 = 1.266	846.74 ± 0.46
373.15 K, 39970 kPa, m1 = 1.55	865.39 ± 0.44
398.15 K, 620 kPa, m1 = 1.266	780.71 ± 0.34
398.15 K, 680 kPa, m1 = 0.09327	692.59 ± 0.33
398.15 K, 740 kPa, m1 = 1.55	801.26 ± 0.35
398.15 K, 950 kPa, m1 = 0.4379	719.54 ± 0.33
398.15 K, 970 kPa, m1 = 0.6899	737.62 ± 0.33
398.15 K, 1030 kPa, m1 = 0.1743	700.75 ± 0.33
398.15 K, 1060 kPa, m1 = 0.9896	760.33 ± 0.34
398.15 K, 5070 kPa, m1 = 0.1743	707.51 ± 0.35
398.15 K, 5070 kPa, m1 = 0.9896	766.76 ± 0.35
398.15 K, 5100 kPa, m1 = 0.09327	700.41 ± 0.35
398.15 K, 5160 kPa, m1 = 0.6899	744.53 ± 0.35
398.15 K, 5180 kPa, m1 = 1.266	786.93 ± 0.36
398.15 K, 5380 kPa, m1 = 0.4379	726.88 ± 0.35
398.15 K, 5470 kPa, m1 = 1.55	808.33 ± 0.36
398.15 K, 10020 kPa, m1 = 0.6899	752.01 ± 0.37
398.15 K, 10060 kPa, m1 = 1.266	793.27 ± 0.37
398.15 K, 10080 kPa, m1 = 0.09327	708.63 ± 0.38
398.15 K, 10290 kPa, m1 = 0.4379	734.49 ± 0.38
398.15 K, 10460 kPa, m1 = 1.55	815.02 ± 0.37
398.15 K, 10540 kPa, m1 = 0.1743	716.08 ± 0.38
398.15 K, 10540 kPa, m1 = 0.9896	774.89 ± 0.37
398.15 K, 15240 kPa, m1 = 0.6899	759.43 ± 0.4
398.15 K, 15290 kPa, m1 = 0.1743	722.99 ± 0.41
398.15 K, 15290 kPa, m1 = 0.9896	781.35 ± 0.39
398.15 K, 15410 kPa, m1 = 0.09327	716.75 ± 0.41
398.15 K, 15610 kPa, m1 = 0.4379	742.12 ± 0.41
398.15 K, 15620 kPa, m1 = 1.266	800.09 ± 0.39
398.15 K, 15620 kPa, m1 = 1.55	821.29 ± 0.39
398.15 K, 20030 kPa, m1 = 0.09327	723.21 ± 0.44
398.15 K, 20080 kPa, m1 = 1.266	805.26 ± 0.41
398.15 K, 20140 kPa, m1 = 0.1743	729.54 ± 0.44
398.15 K, 20140 kPa, m1 = 1.55	826.33 ± 0.4
398.15 K, 20410 kPa, m1 = 0.9896	787.68 ± 0.42
398.15 K, 20480 kPa, m1 = 0.4379	748.53 ± 0.43
398.15 K, 20620 kPa, m1 = 0.6899	766.4 ± 0.43
398.15 K, 24980 kPa, m1 = 0.1743	735.56 ± 0.47
398.15 K, 25060 kPa, m1 = 0.09327	729.63 ± 0.48
398.15 K, 25080 kPa, m1 = 0.9896	792.89 ± 0.44
398.15 K, 25340 kPa, m1 = 0.4379	754.4 ± 0.46
398.15 K, 25340 kPa, m1 = 1.55	831.69 ± 0.42
398.15 K, 25640 kPa, m1 = 1.266	811.31 ± 0.43
398.15 K, 25890 kPa, m1 = 0.6899	772.57 ± 0.45
398.15 K, 30030 kPa, m1 = 1.266	815.79 ± 0.44
398.15 K, 30060 kPa, m1 = 0.4379	759.57 ± 0.49
398.15 K, 30140 kPa, m1 = 0.6899	777.06 ± 0.47
398.15 K, 30170 kPa, m1 = 0.09327	735.52 ± 0.51
398.15 K, 30470 kPa, m1 = 1.55	836.6 ± 0.43
398.15 K, 30740 kPa, m1 = 0.9896	798.47 ± 0.46
398.15 K, 30780 kPa, m1 = 0.1743	742.1 ± 0.51
398.15 K, 35180 kPa, m1 = 0.09327	740.65 ± 0.54
398.15 K, 35180 kPa, m1 = 0.4379	764.61 ± 0.51
398.15 K, 35460 kPa, m1 = 0.1743	746.84 ± 0.54
398.15 K, 35740 kPa, m1 = 1.266	821.22 ± 0.47
398.15 K, 35830 kPa, m1 = 1.55	841.39 ± 0.45
398.15 K, 35940 kPa, m1 = 0.6899	782.51 ± 0.5
398.15 K, 35970 kPa, m1 = 0.9896	802.93 ± 0.48
398.15 K, 39290 kPa, m1 = 0.6899	785.29 ± 0.52
398.15 K, 39380 kPa, m1 = 0.4379	768.3 ± 0.54
398.15 K, 39760 kPa, m1 = 1.55	844.7 ± 0.46
398.15 K, 39790 kPa, m1 = 0.1743	750.79 ± 0.56
398.15 K, 39860 kPa, m1 = 0.9896	805.8 ± 0.5
398.15 K, 39920 kPa, m1 = 0.09327	744.93 ± 0.57
398.15 K, 39920 kPa, m1 = 1.266	824.91 ± 0.48
